This is an account of results in US11672799B2, “1,4-disubstituted pyridazine quinolne analogs there of and methods for treating SMN-deficiency-related conditions” (Novartis AG, priority 2013, dated 2023).

Read-outs that look alike come from different tables or passages of the source.

For this assay, the system named is SMN protein. Nature of the assay: cellular SMN ELISA (SMN protein elevation) in myoblast cell line from SMNdelta7 mouse model. It counts as cell-based. As to the method: A cellular SMN ELISA was used to measure the effects of low molecular weight compounds on SMN protein elevation. Cells from a myoblast cell line derived from the SMNdelta7 mouse model (kind gift from Steve Burden, NYU) were seeded into a 384-well plate at a density of 3000 cells/well and treated with compounds for 24 hours. ELISA capture plates were prepared by coating 384-well plates (Immulon 4HBX) with 0.5 ug/mL of anti-SMN mAb (BD Science, Catalog number 610647) at 4° C. overnight. The plates were washed 5 times with 110 uL of PBS-Tween (0.05% Tween-20, PBST), blocked with 100 uL of 1% BSA in PBST for 2 hours and washed (5 times) with 100 uL of PBST. After 24 hours of compound treatment cells were lysed in a modified RIPA-buffer, on ice for 1 hour. 20 uL of lysate and 20 uL of 1% BSA were then added to the ELISA capture plates and incubated at 4° C. overnight. Plates were washed (5 times) with PBST and then incubated with 1:100 dilution of primary rabbit anti-SMN polyclonal antibody (Santa cruz, Catalog number SC-15320) at room temperature for 1 hour and subsequently washed (5 times) with 110 uL of PBST. This was followed by addition of 1:100 Goat anti-Rabbit IgG-HRP linked (Cell Signaling, Catalog number 7074) secondary antibody for 1 hour. Plates were then washed with PBST and incubated with 40 uL TMB substrate (Cell Signaling, Catalog number 7004 L) at room temperature for 1-10 minutes with shaking. The reaction was stopped by addition of 40 uL of stop solution (Cell signaling, Catalog number 7002 L) and absorption was measured at 450 nm. Data was reported as fold activation over DMSO control, and EC50.
ELISA assay condition 1: compound concentration range 20 nM-10 uM; ELISA assay condition 2: compound concentration 100 pM-10 uM. Data generated in Biological Example 1 using ELISA conditions 1 or 2.

Setting [1] is: Biological Example 1, SMN ELISA, SMNdelta7 mouse myoblasts, 24 hours compound treatment.
The mark [2] stands for this setting: Biological Example 1, SMN ELISA, SMNdelta7 mouse myoblasts, 24 hours compound treatment, read-out: SMN Activity (EC50).
[3] abbreviates: comparison of unsubstituted, ortho-hydroxy and ortho-alkoxy pyridazines, as in Biological Example 1.
[4] abbreviates: comparison of unsubstituted, ortho-hydroxy and ortho-alkoxy pyridazines, as in Biological Example 1, read-out: SMN ELISA EC50.

With `CN1C[C@@H]2CN(c3ccc(-c4cc5cccnc5cc4O)nn3)C[C@@H]2C1` [Example 1-3, 6-(6-((3aR,6aS)-5-methylhexahydropyrrolo[3,4-c]pyrrol-2(1H)-yl)pyridazin-3-yl)quinolin-7-ol], the “SMN Activity (fold activation over DMSO control)” value under setting [1] is on record as 2.5 fold. The EC50 under setting [2] is 255 nM.

`CN(c1ccc(-c2cc3c(=O)n(C)ccc3cc2O)nn1)C1CC(C)(C)NC(C)(C)C1` [Example 35-1, 6-hydroxy-2-methyl-7-(6-(methyl(2,2,6,6-tetramethylpiperidin-4-yl)amino)pyridazin-3-yl)isoquinolin-1(2H)-one]: the “SMN Activity (fold activation over DMSO control)” value under setting [1] is recorded as 2.43 fold. Under setting [2], the EC50 amounted to 3 nM.

Turning to `CN(c1ccc(-c2cc3c(cc2O)c(=O)ccn3C)nn1)C1CC(C)(C)NC(C)(C)C1` [Example 17-1, 6-hydroxy-1-methyl-7-(6-(methyl(2,2,6,6-tetramethylpiperidin-4-yl)amino)pyridazin-3-yl)quinolin-4(1H)-one], the “SMN Activity (fold activation over DMSO control)” value under setting [1] worked out at 2.56 fold. Also, the half-maximal effective concentration (EC50) under setting [2] was 685 nM.

As for `Cc1cc(C#N)c2cc(-c3ccc(N(C)C4CC(C)(C)NC(C)(C)C4)nn3)c(O)cc2n1` [Example 20-2, 7-hydroxy-2-methyl-6-(6-(methyl(2,2,6,6-tetramethylpiperidin-4-yl)amino)pyridazin-3-yl)quinoline-4-carbonitrile], the “SMN Activity (fold activation over DMSO control)” value under setting [1] was 2.68 fold. Besides, the EC50 under setting [2] turned out to be 48 nM.

Consider `CN(c1ccc(-c2cc3c(=O)nc[nH]c3cc2O)nn1)C1CC(C)(C)NC(C)(C)C1` [Example 22-1, 7-hydroxy-6-(6-(methyl(2,2,6,6-tetramethylpiperidin-4-yl)amino)pyridazin-3-yl)quinazolin-4(1H)-one], for which the “SMN Activity (fold activation over DMSO control)” value under setting [1] amounted to 2.58 fold. In addition, the EC50 under setting [2] amounted to 110 nM.

`CCOc1cc(C)nc2cc(O)c(-c3ccc(N(C)C4CC(C)(C)NC(C)(C)C4)nn3)cc12` [Example 10-5, 4-Ethoxy-2-methyl-6-(6-(methyl(2,2,6,6-tetramethylpiperidin-4-yl)amino)pyridazin-3-yl)quinolin-7-ol]: under setting [1], the “SMN Activity (fold activation over DMSO control)” value was 3.3 fold. Further, the EC50 under setting [2] was found to be 20 nM.

Turning to `CN(c1ccc(-c2cc3nc(C(N)=O)ccc3cc2O)nn1)C1CC(C)(C)NC(C)(C)C1` [Example 26-6, 6-hydroxy-7-(6-(methyl(2,2,6,6-tetramethylpiperidin-4-yl)amino)pyridazin-3-yl)quinoline-2-carboxamide], under setting [1], the “SMN Activity (fold activation over DMSO control)” value was determined as 2.6 fold. Under setting [2], the EC50 amounted to 7 nM.

As for `CN(c1ccc(-c2cc3cc(O)cnc3cc2O)nn1)C1CC(C)(C)NC(C)(C)C1` [Example 7-6, 6-(6-(methyl(2,2,6,6-tetramethylpiperidin-4-yl)amino)pyridazin-3-yl)quinoline-3,7-diol], the “SMN Activity (fold activation over DMSO control)” value under setting [1] came out at 2.9 fold. For the same compound, the EC50 under setting [2] came to 300 nM.

In the case of `Cc1cnc2cc(-c3ccc(N(C)C4CC(C)(C)NC(C)(C)C4)nn3)c(O)cc2c1` [Example 15-3, 3-methyl-7-(6-(methyl(2,2,6,6-tetramethylpiperidin-4-yl)amino)pyridazin-3-yl)quinolin-6-ol], the “SMN Activity (fold activation over DMSO control)” value under setting [1] is 3.28 fold. Besides, the EC50 under setting [2] came out at 7 nM.

Regarding `CN(c1ccc(-c2cc3c(C#N)nccc3cc2O)nn1)C1CC(C)(C)NC(C)(C)C1` [Example 3-7, 6-hydroxy-7-(6-(methyl(2,2,6,6-tetramethylpiperidin-4-yl)amino)pyridazin-3-yl)isoquinoline-1-carbonitrile], the “SMN Activity (fold activation over DMSO control)” value under setting [1] came to 2.9 fold. The EC50 under setting [2] came to 2 nM.

As for `CN(c1ccc(-c2cc3c(O)nccc3cc2O)nn1)C1CC(C)(C)NC(C)(C)C1` [Example 3-6, 7-(6-(methyl(2,2,6,6-tetramethylpiperidin-4-yl)amino)pyridazin-3-yl)isoquinoline-1,6-diol], under setting [1], the “SMN Activity (fold activation over DMSO control)” value stood at 2.43 fold. Besides, the EC50 under setting [2] came out at 8 nM.

As for `CN(c1ccc(-c2ccc3ncccc3c2)nn1)C1CC(C)(C)NC(C)(C)C1` [drawing 135 R = H], the Fold activation under setting [3] came to 2.2. Besides, the EC50 under setting [4] was determined as 660 nM.

As for `CC1(C)CC(Oc2ccc(-c3cc4c(O)nccc4cc3O)nn2)CC(C)(C)N1` [Example 35-4, 7-(6-((2,2,6,6-tetramethylpiperidin-4-yl)oxy)pyridazin-3-yl)isoquinoline-1,6-diol], under setting [1], the “SMN Activity (fold activation over DMSO control)” value is given as 3.26 fold. Further, the EC50 under setting [2] came out at 96 nM.

For `CN(c1ccc(-c2cc3ccc(C(N)=O)nc3cc2O)nn1)C1CC(C)(C)NC(C)(C)C1` [Example 26-5, 7-hydroxy-6-(6-(methyl(2,2,6,6-tetramethylpiperidin-4-yl)amino)pyridazin-3-yl)quinoline-2-carboxamide], under setting [1], the “SMN Activity (fold activation over DMSO control)” value amounted to 2.16 fold. Moreover, under setting [2], the EC50 worked out at 1 nM.

Turning to `CN(c1ccc(-c2cc3cc(-c4cn(C)cn4)cnc3cc2O)nn1)C1CC(C)(C)NC(C)(C)C1` [Example 7-4, 6-(6-(methyl(2,2,6,6-tetramethylpiperidin-4-yl)amino)pyridazin-3-yl)-3-(1-methyl-1H-imidazol-4-yl)quinolin-7-ol], under setting [1], the “SMN Activity (fold activation over DMSO control)” value is on record as 2.2 fold. Further, the EC50 under setting [2] was determined as 200 nM.

As to `Cc1cc(C2COC2)c2cc(-c3ccc(N(C)C4CC(C)(C)NC(C)(C)C4)nn3)c(O)cc2n1` [Example 20-6, 2-methyl-6-(6-(methyl(2,2,6,6-tetramethylpiperidin-4-yl)amino)pyridazin-3-yl)-4-(oxetan-3-yl)quinolin-7-ol], the “SMN Activity (fold activation over DMSO control)” value under setting [1] amounted to 3.18 fold. For the same compound, under setting [2], the EC50 is 165 nM.

Consider `COc1cc(C)nc2cc(O)c(-c3ccc(N(C)C4CC(C)(C)NC(C)(C)C4)nn3)cc12` [Example 10-1, 4-methoxy-2-methyl-6-(6-(methyl(2,2,6,6-tetramethylpiperidin-4-yl)amino)pyridazin-3-yl)quinolin-7-ol], for which the “SMN Activity (fold activation over DMSO control)” value under setting [1] turned out to be 3.3 fold. The EC50 under setting [2] came to 10 nM.

On to `CN(c1ccc(-c2cc3ccncc3cc2O)nn1)C1CC(C)(C)NC(C)(C)C1` [Example 4-1, 6-(6-(methyl(2,2,6,6-tetramethylpiperidin-4-yl)amino)pyridazin-3-yl)isoquinolin-7-ol], for which, under setting [1], the “SMN Activity (fold activation over DMSO control)” value turned out to be 2.6 fold. For the same compound, the EC50 was found to be 6 nM under setting [2] and 6 nM under setting [4]. In addition, the Fold activation under setting [3] is listed as 2.6.

Consider `COc1ccnc2cc(O)c(-c3ccc(N(C)C4CC(C)(C)NC(C)(C)C4)nn3)cc12` [Example 19-1, 4-methoxy-6-(6-(methyl(2,2,6,6-tetramethylpiperidin-4-yl)amino)pyridazin-3-yl)quinolin-7-ol], for which, under setting [1], the “SMN Activity (fold activation over DMSO control)” value is 2.65 fold. The EC50 under setting [2] came out at 10 nM.

Take `CC(C)c1cnc2cc(O)c(-c3ccc(N(C)C4CC(C)(C)NC(C)(C)C4)nn3)cc2c1` [Example 8-2, 3-isopropyl-6-(6-(methyl(2,2,6,6-tetramethylpiperidin-4-yl)amino)pyridazin-3-yl)quinolin-7-ol]: the “SMN Activity (fold activation over DMSO control)” value under setting [1] turned out to be 2.50 fold. Also, the EC50 under setting [2] was found to be 190 nM.

Regarding `Cc1cc(N2CCOCC2)c2cc(-c3ccc(N(C)C4CC(C)(C)NC(C)(C)C4)nn3)c(O)cc2n1` [Example 10-3, 2-Methyl-6-(6-(methyl(2,2,6,6-tetramethylpiperidin-4-yl)amino)pyridazin-3-yl)-4-morpholinoquinolin-7-ol], under setting [1], the “SMN Activity (fold activation over DMSO control)” value is on record as 2.6 fold. For the same compound, the EC50 under setting [2] was determined as 110 nM.

As to `CN(c1ccc(-c2cc3cc(-n4ccnc4)cnc3cc2O)nn1)C1CC(C)(C)NC(C)(C)C1` [Example 7-5, 3-(1H-imidazol-1-yl)-6-(6-(methyl(2,2,6,6-tetramethylpiperidin-4-yl)amino)pyridazin-3-yl)quinolin-7-ol], the “SMN Activity (fold activation over DMSO control)” value under setting [1] turned out to be 2.5 fold. Besides, the half-maximal effective concentration (EC50) under setting [2] stood at 50 nM.

With `CN(c1ccc(-c2c(O)ccc3cccnc23)nn1)C1CC(C)(C)NC(C)(C)C1` [Example 5-1, 8-(6-(methyl(2,2,6,6-tetramethylpiperidin-4-yl)amino)pyridazin-3-yl)quinolin-7-ol], the “SMN Activity (fold activation over DMSO control)” value under setting [1] was found to be 2.6 fold. For the same compound, the EC50 under setting [2] was 300 nM.

For `CN(C)c1ccnc2cc(O)c(-c3ccc(N(C)C4CC(C)(C)NC(C)(C)C4)nn3)cc12` [Example 21-1, 4-(dimethylamino)-6-(6-(methyl(2,2,6,6-tetramethylpiperidin-4-yl)amino)pyridazin-3-yl)quinolin-7-ol], the “SMN Activity (fold activation over DMSO control)” value under setting [1] is on record as 3.01 fold. Also, the EC50 under setting [2] was 60 nM.

Under setting [3], `CN(c1ccc(-c2ccc3ccncc3c2)nn1)C1CC(C)(C)NC(C)(C)C1` [drawing 137 R = H] displayed a Fold activation of 2.7. In addition, the EC50 under setting [4] amounted to 250 nM.
